According to PubChem BioAssay AID246 (DTP/NCI, 2004):
Where “and” joins values, the source holds several entries; their conditions need not be identical. Identical values can stand only once. Inconclusive results and toxic doses are left out.

System: BDF1 mice, P1081 chloroleukemia ip, survival T/C
Assay: NCI In Vivo Anticancer Drug Screen. Data for tumor model P1081 Chloroleukemia (intraperitoneal) in B6D2F1 (BDF1) mice
Settings: endpoint: mean survival time, higher = longer survival
Protocol: The antitumor activity of compounds was measured in mice bearing transplantable tumors. Survival or tumor size were measured and the results are expressed as the measurement made in the treated group (T) divided by the measurement made in the vehicle treated control group (C). The tumor model used in this assay is P1081 Chloroleukemia (intraperitoneal) in B6D2F1 (BDF1) mice

[1] = dose: 2.5 mg/kg/injection, schedule: Q01DX Z (ip), vehicle: carboxymethylcellulose (CMC)
[2] = dose: 4.0 mg/kg/injection, schedule: Q01DX010 (ip), vehicle: saline
[3] = dose: 8.0 mg/kg/injection, schedule: Q01DX010 (ip), vehicle: saline
[4] = dose: 16.0 mg/kg/injection, schedule: Q01DX010 (ip), vehicle: saline
[5] = dose: 62.5 mg/kg/injection, schedule: Q01DX Z (ip), vehicle: carboxymethylcellulose (CMC)
[6] = dose: 63.0 mg/kg/injection, schedule: Q01DX Z (ip), vehicle: carboxymethylcellulose (CMC)
[7] = dose: 15.6 mg/kg/injection, schedule: Q01DX010 (ip), vehicle: saline
[8] = dose: 31.3 mg/kg/injection, schedule: Q01DX010 (ip), vehicle: saline
[9] = dose: 62.5 mg/kg/injection, schedule: Q01DX010 (ip), vehicle: saline
[10] = dose: 125.0 mg/kg/injection, schedule: Q01DX010 (ip), vehicle: saline
[11] = dose: 25.0 mg/kg/injection, schedule: Q01DX010 (ip), vehicle: saline
[12] = dose: 50.0 mg/kg/injection, schedule: Q01DX010 (ip), vehicle: saline

Nc1nc(N)c2nc(CNc3ccc(C(=O)NC(CCC(=O)O)C(=O)O)cc3)cnc2n1 (stereo unspecified)
T/C (dose: 0.05 mg/kg/injection, schedule: Q01DX010 (ip), vehicle: other): 120 % of control
T/C (dose: 0.2 mg/kg/injection, schedule: Q01DX010 (ip), vehicle: other): 160 % of control and 170 % of control
T/C (dose: 0.4 mg/kg/injection, schedule: Q01DX010 (ip), vehicle: other): 90 % of control
T/C (dose: 8.0 micrograms/kg/injection, schedule: Q01DX Z (ip), vehicle: alkali diluted with saline): 117 % of control
T/C (dose: 16.0 micrograms/kg/injection, schedule: Q01DX Z (ip), vehicle: alkali diluted with saline): 107 % of control
T/C (dose: 31.0 micrograms/kg/injection, schedule: Q01DX Z (ip), vehicle: alkali diluted with saline): 99 % of control

CN(C)CC(=O)c1ccc(O)c(O)c1
T/C (dose: 16.0 mg/kg/injection, schedule: Q01DX Z (ip), vehicle: saline): 114 % of control
T/C (dose: 31.0 mg/kg/injection, schedule: Q01DX Z (ip), vehicle: saline): 112 % of control
T/C (dose: 62.0 mg/kg/injection, schedule: Q01DX Z (ip), vehicle: saline): 118 % of control
T/C (dose: 125.0 mg/kg/injection, schedule: Q01DX Z (ip), vehicle: saline): 115 % of control

CC(CCC(C)OS(C)(=O)=O)OS(C)(=O)=O (stereo unspecified)
T/C (dose: 1.25 mg/kg/injection, schedule: Q01DX Z (ip), vehicle: carboxymethylcellulose (CMC)): 95 % of control
T/C [1]: 111 % of control
T/C [2]: 100 % of control
T/C [3]: 105 % of control
T/C [4]: 115 % of control and 105 % of control
T/C (dose: 32.0 mg/kg/injection, schedule: Q01DX010 (ip), vehicle: saline): 116 % of control
T/C (dose: 64.0 mg/kg/injection, schedule: Q01DX010 (ip), vehicle: saline): 88 % of control

CN1CC[C@]23c4c5ccc(O)c4O[C@H]2C(=O)CC[C@H]3[C@H]1C5
T/C (dose: 2.0 mg/kg/injection, schedule: Q01DX010 (ip), vehicle: saline): 105 % of control
T/C [2]: 90 % of control and 100 % of control
T/C [3]: 90 % of control and 105 % of control
T/C [4]: 90 % of control and 100 % of control

CCOC(=O)NP(=O)(N1CC1(C)C)N1CC1(C)C (stereo unspecified)
T/C (dose: 8.0 mg/kg/injection, schedule: Q01DX Z (ip), vehicle: carboxymethylcellulose (CMC)): 109 % of control
T/C (dose: 16.0 mg/kg/injection, schedule: Q01DX Z (ip), vehicle: carboxymethylcellulose (CMC)): 106 % of control and 99 % of control
T/C [5]: 87 % of control and 104 % of control
T/C [6]: 169 % of control

Nc1nc(=S)c2ncn(C3OC(CO)C(O)C3O)c2[nH]1 (stereo unspecified)
T/C (dose: 0.31 mg/kg/injection, schedule: Q01DX Z (ip), vehicle: carboxymethylcellulose (CMC)): 117 % of control
T/C (dose: 0.63 mg/kg/injection, schedule: Q01DX Z (ip), vehicle: carboxymethylcellulose (CMC)): 115 % of control
T/C [1]: 158 % of control
T/C (dose: 5.0 mg/kg/injection, schedule: Q01DX Z (ip), vehicle: carboxymethylcellulose (CMC)): 95 % of control
T/C [3]: 95 % of control
T/C [4]: 90 % of control
T/C (dose: 20.0 mg/kg/injection, schedule: Q01DX Z (ip), vehicle: carboxymethylcellulose (CMC)): 90 % of control

Nc1c(Br)cc2c(c1Br)Cc1cc([N+](=O)[O-])ccc1-2
T/C [7]: 100 % of control
T/C [8]: 105 % of control
T/C [9]: 110 % of control and 100 % of control
T/C [10]: 100 % of control
T/C (dose: 250.0 mg/kg/injection, schedule: Q01DX010 (ip), vehicle: saline): 100 % of control
T/C (dose: 500.0 mg/kg/injection, schedule: Q01DX010 (ip), vehicle: saline): 95 % of control

CN(Cc1cnc2nc(N)nc(N)c2n1)c1c(Cl)cc(C(=O)NC(CCC(=O)O)C(=O)O)cc1Cl (stereo unspecified)
T/C (dose: 12.5 mg/kg/injection, schedule: Q01DX Z (ip), vehicle: carboxymethylcellulose (CMC)): 101 % of control
T/C (dose: 25.0 mg/kg/injection, schedule: Q01DX Z (ip), vehicle: carboxymethylcellulose (CMC)): 102 % of control

O=c1cnn(C2OC(CO)C(O)C2O)c(=O)[nH]1 (stereo unspecified)
T/C (dose: 62.5 mg/kg/injection, schedule: Q01DX Z (ip), vehicle: water): 94 % of control
T/C (dose: 125.0 mg/kg/injection, schedule: Q01DX Z (ip), vehicle: water): 120 % of control and 90 % of control
T/C (dose: 250.0 mg/kg/injection, schedule: Q01DX Z (ip), vehicle: water): 116 % of control and 121 % of control
T/C (dose: 500.0 mg/kg/injection, schedule: Q01DX Z (ip), vehicle: water): 120 % of control
T/C (dose: 1000.0 mg/kg/injection, schedule: Q01DX Z (ip), vehicle: water): 92 % of control
T/C (dose: 1600.0 mg/kg/injection, schedule: Q01DX010 (ip), vehicle: saline): 100 % of control

CC(=O)[C@H]1CC[C@H]2[C@@H]3C[C@H](C)C4=CC(=O)CC[C@]4(C)[C@H]3C(=O)C[C@]12C
T/C (dose: 6.3 mg/kg/injection, schedule: Q01DX Z (sc), vehicle: steriod suspending solution): 121 % of control
T/C (dose: 12.5 mg/kg/injection, schedule: Q01DX Z (sc), vehicle: steriod suspending solution): 110 % of control
T/C (dose: 25.0 mg/kg/injection, schedule: Q01DX Z (sc), vehicle: steriod suspending solution): 110 % of control
T/C (dose: 50.0 mg/kg/injection, schedule: Q01DX Z (sc), vehicle: steriod suspending solution): 101 % of control
T/C (dose: 100.0 mg/kg/injection, schedule: Q01DX Z (sc), vehicle: steriod suspending solution): 98 % of control
T/C (dose: 200.0 mg/kg/injection, schedule: Q01DX Z (sc), vehicle: steriod suspending solution): 105 % of control and 94 % of control

COS(C)(=O)=O
T/C (dose: 1.6 mg/kg/injection, schedule: Q01DX Z (ip), vehicle: water): 94 % of control
T/C (dose: 3.1 mg/kg/injection, schedule: Q01DX Z (ip), vehicle: water): 99 % of control
T/C (dose: 6.25 mg/kg/injection, schedule: Q01DX Z (ip), vehicle: water): 120 % of control and 103 % of control
T/C (dose: 12.5 mg/kg/injection, schedule: Q01DX Z (ip), vehicle: water): 109 % of control
T/C [11]: 95 % of control
T/C (dose: 25.0 mg/kg/injection, schedule: Q01DX Z (ip), vehicle: water): 112 % of control and 98 % of control
T/C [12]: 115 % of control
T/C (dose: 50.0 mg/kg/injection, schedule: Q01DX Z (ip), vehicle: water): 90 % of control
T/C (dose: 100.0 mg/kg/injection, schedule: Q01DX Z (ip), vehicle: water): 91 % of control

Nc1c(I)cc(I)cc1C(=O)O
T/C [11]: 100 % of control
T/C [12]: 110 % of control and 88 % of control
T/C (dose: 100.0 mg/kg/injection, schedule: Q01DX010 (ip), vehicle: saline): 100 % of control and 105 % of control
T/C (dose: 200.0 mg/kg/injection, schedule: Q01DX010 (ip), vehicle: saline): 111 % of control and 105 % of control

CCn1cnc2c(=S)nc[nH]c21
T/C (dose: 7.75 mg/kg/injection, schedule: Q01DX Z (ip), vehicle: carboxymethylcellulose (CMC)): 112 % of control
T/C (dose: 15.5 mg/kg/injection, schedule: Q01DX Z (ip), vehicle: carboxymethylcellulose (CMC)): 101 % of control
T/C [7]: 110 % of control and 105 % of control
T/C (dose: 31.0 mg/kg/injection, schedule: Q01DX Z (ip), vehicle: carboxymethylcellulose (CMC)): 105 % of control
T/C [8]: 100 % of control and 105 % of control
T/C [9]: 110 % of control and 105 % of control
T/C [5]: 110 % of control
T/C [6]: 98 % of control
T/C [10]: 115 % of control
T/C (dose: 125.0 mg/kg/injection, schedule: Q01DX Z (ip), vehicle: carboxymethylcellulose (CMC)): 86 % of control

CC(=O)OCC1OC(n2ncc(=O)[nH]c2=O)C(OC(C)=O)C1OC(C)=O (stereo unspecified)
T/C (dose: 118.0 mg/kg/injection, schedule: Q01DX Z (ip), vehicle: other): 100 % of control
T/C (dose: 235.0 mg/kg/injection, schedule: Q01DX Z (ip), vehicle: other): 93 % of control
T/C (dose: 468.75 mg/kg/injection, schedule: Q01DX Z (ip), vehicle: alkali diluted with saline): 115 % of control
T/C (dose: 469.0 mg/kg/injection, schedule: Q01DX Z (ip), vehicle: other): 91 % of control
T/C (dose: 1875.0 mg/kg/injection, schedule: Q01DX Z (ip), vehicle: alkali diluted with saline): 121 % of control
T/C (dose: 3750.0 mg/kg/injection, schedule: Q01DX Z (ip), vehicle: alkali diluted with saline): 111 % of control
